Values quoted from earlier work in PubChem BioAssay AID1259409 (Chemical Carcinogenesis Research Information System (CCRIS), 2018).

Test system: rodent chemically induced tumor inhibition, incidence and multiplicity
Assay: CCRIS tumor inhibitor studies
Details: for outcome: Carcinogen: 7,12-Dimethylbenz[a]anthracene, 57-97-6 and 12-O-Tetradecanoylphorbol-13-acetate, Dose [Inhibitor]: 50 ug/ml in acetone by topical application starting on the 16th wk and continuing to end of study (study duration: 30 wk, Route [Inhibitor]: Skin, Species: Mouse, Strain/Sex: Albino/Sex not given, Target Tissue: Type of Lesion: Skin, Dose [Carcinogen]: DMBA in acetone, 100 ug/ml, single topical dose, TPA in acetone, 10 ug/ml, topical administration twice a wk for 15 wk

Compound: CC1=C(/C=C/C(C)=C/C=C/C(C)=C\C(=O)O)C(C)(C)CCC1
- tumour outcome (control, treated, inhibition, significance) (Carcinogen: 1,2-DIMETHYLHYDRAZINE, 540-73-8, Dose [Inhibitor]: 67 µM/G DIET, Route [Inhibitor]: ORAL, Species: RAT, Strain/Sex: SPRAGUE-DAWLEY/MALE, Target Tissue: Type of Lesion: COLON: TUMOR, Dose [Carcinogen]: 30 MG/KG BW 1/WK FOR 5 WK, Promoter: NONE USED): 20/20 (100%), 8/20 (40%), 60%, not calculated
- tumour outcome (control, treated, inhibition, significance) (Carcinogen: 1,2-DIMETHYLHYDRAZINE, 5400-73-8, Dose [Inhibitor]: 67 UG/G DIET FED SIMULTANEOUSLY DURING CARCINOGEN TREATMENT (STUDY DURATION: 46 WK), Route [Inhibitor]: ORAL, Species: RAT, Strain/Sex: WISTAR/FEMALE, Target Tissue: Type of Lesion: COLON: ADENOCARCINOMA, Dose [Carcinogen]: 15 MG/KG BW/WK FOR 28 WK, Promoter: NONE USED): 8/12 (67%), 5/10 (50%), 25%, not significant
- tumour outcome (control, treated, inhibition, significance) (Carcinogen: 1,2-DIMETHYLHYDRAZINE, 5400-73-8, Dose [Inhibitor]: 67 UG/G DIET FED SIMULTANEOUSLY DURING CARCINOGEN TREATMENT (STUDY DURATION: 46 WK), Route [Inhibitor]: ORAL, Species: RAT, Strain/Sex: WISTAR/FEMALE, Target Tissue: Type of Lesion: SMALL INTESTINE: ADENOCARCINOMA, Dose [Carcinogen]: 15 MG/KG BW/WK FOR 28 WK, Promoter: NONE USED): 8/12 (67%), 9/10 (90%), -34%, not significant
- tumour outcome (control, treated, inhibition, significance) (Carcinogen: 3-METHYLCHOLANTHRENE, 56-49-5, Dose [Inhibitor]: 3 MG IN 0.1 ML ACETONE STARTING 2 WK AFTER START OF CARCINOGEN TREATMENT AND APPLIED 2/WK DURING WK 3-5 OF THE STUDY AND, Route [Inhibitor]: DERMAL, Species: MOUSE, Strain/Sex: SWISS/FEMALE, Target Tissue: Type of Lesion: SKIN: CARCINOMA, Dose [Carcinogen]: 0.1 ML OF 0.3% DISSOLVED IN ACETONE APPLIED 2/WK FIRST 5 WK THEN 1/WK FOR WK 6-9 FOLLOWED BY NO FURTHER TREATMENT THROUG, Promoter: NONE USED): 5/19 (26%), 2/20 (10%), 62%, not calculated
- tumour outcome (control, treated, inhibition, significance) (Carcinogen: 3-METHYLCHOLANTHRENE, 56-49-5, Dose [Inhibitor]: 3 MG IN 0.1 ML ACETONE STARTING 2 WK AFTER START OF CARCINOGEN TREATMENT AND APPLIED 2/WK DURING WK 3-5 OF THE STUDY AND, Route [Inhibitor]: DERMAL, Species: MOUSE, Strain/Sex: SWISS/FEMALE, Target Tissue: Type of Lesion: SKIN: PAPILLOMA, Dose [Carcinogen]: 0.1 ML OF 0.3% DISSOLVED IN ACETONE APPLIED 2/WK FIRST 5 WK THEN 1/WK FOR WK 6-9 FOLLOWED BY NO FURTHER TREATMENT THROUG, Promoter: NONE USED): 9/19 (47%), 4/20 (20%), 57%, not calculated
- outcome (16561-29-8, 16561-29-8): malignant lesions: 4/20 (20%), 4/20 (20%), not significant
- outcome (16561-29-8, 16561-29-8, Promoter: None): malignant lesions: 5/20 (20%), 4/20 (20%), not significant
- tumour outcome (control, treated, inhibition, significance) (Carcinogen: AZOXYMETHANE, 25843-45-2, Dose [Inhibitor]: 50 MG/KG DIET DAILY STARTING SIMULTANEOUSLY WITH CARCINOGEN TREATMENT AND CONTINUING THROUGH END OF STUDY (STUDY DURATIO, Route [Inhibitor]: ORAL, Species: RAT, Strain/Sex: SPRAGUE-DAWLEY/MALE, Target Tissue: Type of Lesion: LARGE INTESTINE: MALIGNANT TUMOR, Dose [Carcinogen]: 8 MG/KG BW 1/WK FOR 8 WK, Promoter: NONE USED): 90%, 90%, 0%, not significant
- tumour outcome (control, treated, inhibition, significance) (Carcinogen: AZOXYMETHANE, 25843-45-2, Dose [Inhibitor]: 50 MG/KG DIET DAILY STARTING SIMULTANEOUSLY WITH CARCINOGEN TREATMENT AND CONTINUING THROUGH END OF STUDY (STUDY DURATIO, Route [Inhibitor]: ORAL, Species: RAT, Strain/Sex: SPRAGUE-DAWLEY/MALE, Target Tissue: Type of Lesion: SMALL INTESTINE: MALIGNANT TUMOR, Dose [Carcinogen]: 8 MG/KG BW 1/WK FOR 8 WK, Promoter: NONE USED): 90%, 83%, 8%, not significant
- tumour outcome (control, treated, inhibition, significance) (Carcinogen: AZOXYMETHANE, 25843-45-2, Dose [Inhibitor]: 50 MG/KG IN DIET DAILY FOR 26 WK STARTING SIMULTANEOUSLY WITH CARCINOGEN TREATMENT (STUDY DURATION: 26 WK), Route [Inhibitor]: ORAL, Species: RAT, Strain/Sex: SPRAGUE-DAWLEY/MALE, Target Tissue: Type of Lesion: LARGE INTESTINE: MALIGNANT TUMOR, Dose [Carcinogen]: 8 MG/KG BW 1/WK FOR 8 WK, Promoter: NONE USED): 90%, 90%, 0%, not significant
- tumour outcome (control, treated, inhibition, significance) (Carcinogen: AZOXYMETHANE, 25843-45-2, Dose [Inhibitor]: 50 MG/KG IN DIET DAILY FOR 26 WK STARTING SIMULTANEOUSLY WITH CARCINOGEN TREATMENT (STUDY DURATION: 26 WK), Route [Inhibitor]: ORAL, Species: RAT, Strain/Sex: SPRAGUE-DAWLEY/MALE, Target Tissue: Type of Lesion: SMALL INTESTINE: TUMOR, Dose [Carcinogen]: 8 MG/KG BW 1/WK FOR 8 WK, Promoter: NONE USED): 90%, 83%, 8%, not significant
- tumour outcome (control, treated, inhibition, significance) (Carcinogen: BENZO[A]PYENE, 50-32-8, Dose [Inhibitor]: 17 NMOL 2/WK 0.5 HR BEFORE EACH PROMOTER APPLICATION FOR 24 WK STARTING 7 D AFTER CARCINOGEN APPLICATION (STUDY DURATION, Route [Inhibitor]: DERMAL, Species: MOUSE, Strain/Sex: SENCAR, Target Tissue: Type of Lesion: SKIN: PAPILLOMA, Dose [Carcinogen]: 400 NMOL ONCE, Promoter: ANTHRALIN, 1143-38-0): 73%, 83%, -14%, not significant
- tumour outcome (control, treated, inhibition, significance) (Carcinogen: BENZO[A]PYENE, 50-32-8, Dose [Inhibitor]: 34 NMOL ONCE 0.5 HR BEFORE CARCINOGEN APPLICATION (STUDY DURATION: 25 WK), Route [Inhibitor]: DERMAL, Species: MOUSE, Strain/Sex: CD-1/FEMALE, Target Tissue: Type of Lesion: SKIN: PAPILLOMA, Dose [Carcinogen]: 200 NMOL IN 0.2 ML ACETONE ONCE 0.5 HR AFTER AGENT TREATMENT, Promoter: 12-O-TETRADECANOYLPHORBOL-13-ACETATE, 16561-29-8): 90%, 98%, -9%, not significant
- tumour outcome (control, treated, inhibition, significance) (Carcinogen: BENZO[A]PYRENE, 50-32-8, Dose [Inhibitor]: 0, 240 MG/KG OF DIET FOR 6 WK (STUDY DURATION: 9 WK), Route [Inhibitor]: ORAL, Species: MOUSE, Strain/Sex: NIGP(S)/FEMALE, Target Tissue: Type of Lesion: LUNG: ADENOMA, Dose [Carcinogen]: 0.5 MG INJECTED IN THE SCAPULAR REGION OF NEWBORN MICE ONCE, Promoter: NONE USED): 35%, 55%, -57%, not calculated
- tumour outcome (control, treated, inhibition, significance) (Carcinogen: BENZO[A]PYRENE, 50-32-8, Dose [Inhibitor]: 0, 240 MG/KG OF DIET FOR 6 WK (STUDY DURATION: 9 WK), Route [Inhibitor]: ORAL, Species: MOUSE, Strain/Sex: NIGP(S)/MALE, Target Tissue: Type of Lesion: LUNG: ADENOMA, Dose [Carcinogen]: 0.5 MG INJECTED IN THE SCAPULAR REGION OF NEWBORN MICE ONCE, Promoter: NONE USED): 48%, 42%, 13%, not calculated
- tumour outcome (control, treated, inhibition, significance) (Carcinogen: N,N-DIMETHYLNITROSAMINE, 62-75-9, Dose [Inhibitor]: 240 MG/KG OF DIET DAILY FOR 3 WK STARTING 2 D AFTER CARCINOGEN TREATMENT AT 6 WK OF AGE AND THEN OBSERVED UNTIL DEATH (S, Route [Inhibitor]: ORAL, Species: RAT, Strain/Sex: WISTAR/FEMALE, Target Tissue: Type of Lesion: KIDNEY: MESENCHYMAL TUMOR, Dose [Carcinogen]: 40 MG/KG BW ONCE, Promoter: NONE USED): 22/27 (82%), 27/32 (84%), -2%, not significant
- tumour outcome (control, treated, inhibition, significance) (Carcinogen: N,N-DIMETHYLNITROSAMINE, 62-75-9, Dose [Inhibitor]: 240 MG/KG OF DIET DAILY FOR 3 WK STARTING 2 D AFTER CARCINOGEN TREATMENT AT 6 WKOF AGE AND THEN OBSERVED UNTIL DEATH (ST, Route [Inhibitor]: ORAL, Species: RAT, Strain/Sex: WISTAR/FEMALE, Target Tissue: Type of Lesion: KIDNEY: EPITHELIAL TUMOR (ADENOMA, ADENOCARCINOMA), Dose [Carcinogen]: 40 MG/KG BW ONCE, Promoter: NONE USED): 13/27 (48%), 17/32 (53%), -10%, not significant
- tumour outcome (control, treated, inhibition, significance) (Carcinogen: N,N-DIMETHYLNITROSAMINE, 62-75-9, Dose [Inhibitor]: 240 MG/KG OF DIET DAILY FOR 10 WK STARTING 2 D AFTER CARCINOGEN TREATMENT AT 6 WK OF AGE AND THEN OBSERVED UNTIL DEATH (, Route [Inhibitor]: ORAL, Species: RAT, Strain/Sex: WISTAR/FEMALE, Target Tissue: Type of Lesion: KIDNEY: EPITHELIAL TUMOR (ADENOMA, ADENOCARCINOMA), Dose [Carcinogen]: 40 MG/KG BW ONCE, Promoter: NONE USED): 13/27 (48%), 11/29 (38%), 21%, not significant
- tumour outcome (control, treated, inhibition, significance) (Carcinogen: N,N-DIMETHYLNITROSAMINE, 62-75-9, Dose [Inhibitor]: 240 MG/KG OF DIET DAILY FOR 26 WK STARTING 2 D AFTER CARCINOGEN TREATMENT AT 6 WK OF AGE AND THEN OBSERVED UNTIL DEATH (, Route [Inhibitor]: ORAL, Species: RAT, Strain/Sex: WISTAR/FEMALE, Target Tissue: Type of Lesion: KIDNEY: EPITHELIAL TUMOR (ADENOMA, ADENOCARCINOMA), Dose [Carcinogen]: 40 MG/KG BW ONCE, Promoter: NONE USED): 13/27 (48%), 11/21 (52%), -8%, not significant
- tumour outcome (control, treated, inhibition, significance) (Carcinogen: N,N-DIMETHYLNITROSAMINE, 62-75-9, Dose [Inhibitor]: 240 MG/KG OF DIET DAILY FOR 26 WK STARTING 2 D AFTER CARCINOGEN TREATMENT AT 6 WK OF AGE AND THEN OBSERVED UNTIL DEATH (, Route [Inhibitor]: ORAL, Species: RAT, Strain/Sex: WISTAR/FEMALE, Target Tissue: Type of Lesion: KIDNEY: MESENCHYMAL TUMOR, Dose [Carcinogen]: 40 MG/KG BW ONCE, Promoter: NONE USED): 22/27 (82%), 21/21 (100%), -22%, not significant
- tumour outcome (control, treated, inhibition, significance) (Carcinogen: N-(4-(5-NITRO-2-FURYL)-2-THIAZOLYL)FORMAMIDE, 24554-26-5, Dose [Inhibitor]: 120 MG/KG DIET DAILY STARTING 1 WK AFTER COMPLETION OF CARCINOGEN TREATMENT AND CONTINUING UNTIL END OF STUDY (STUDY DUR, Route [Inhibitor]: ORAL, Species: RAT, Strain/Sex: F344/FEMALE, Target Tissue: Type of Lesion: URINARY BLADDER: CARCINOMA, Dose [Carcinogen]: 2 G/KG DIET DAILY FOR 10 WK, Promoter: NONE USED): 36/100 (36%), 42/100 (42%), -17%, p 0.135
